In ChEMBL document CHEMBL6071193, “Structure-Activity Relationship of Potent, Selective, and Orally Bioavailable Molecular Glue Degraders of CK1α” (ACS Med Chem Lett, 2024):
pEC50, pIC50: −log10 of the molar value. ≈ marks a conversion by molar mass, not a printed value. Calls of active or inactive are those of the source. No cut-off for these calls is given here.

Columns and labels:
[1] = target: T1, Cereblon/Casein kinase I alpha (Homo sapiens, UniProt P48729+Q96SW2); assay: Binding affinity to Halo-tagged CRBN (unknown origin)/HiBiT-tagged CK1alpha in HEK293 cells transfected with LgBiT expression vector assessed as ternary complex formation by measuring fold increase in NanoBRET signal preincubated with MG132 for 30 mins followed by compound addition and measured after 2 hrs by NanoBRET assay relative to control; format: cell-based
Target sequence in this assay (P48729 2-337 limits assumed): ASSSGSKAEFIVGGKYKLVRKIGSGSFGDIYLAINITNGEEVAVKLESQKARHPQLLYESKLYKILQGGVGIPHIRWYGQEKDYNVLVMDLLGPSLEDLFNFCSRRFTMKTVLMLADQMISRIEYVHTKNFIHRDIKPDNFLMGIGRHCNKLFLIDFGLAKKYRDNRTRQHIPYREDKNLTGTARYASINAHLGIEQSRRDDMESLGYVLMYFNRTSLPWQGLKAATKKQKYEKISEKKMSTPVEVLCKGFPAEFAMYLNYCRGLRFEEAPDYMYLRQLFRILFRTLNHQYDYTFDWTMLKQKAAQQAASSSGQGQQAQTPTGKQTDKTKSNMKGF
Target sequence in this assay (Q96SW2 whole entry partner): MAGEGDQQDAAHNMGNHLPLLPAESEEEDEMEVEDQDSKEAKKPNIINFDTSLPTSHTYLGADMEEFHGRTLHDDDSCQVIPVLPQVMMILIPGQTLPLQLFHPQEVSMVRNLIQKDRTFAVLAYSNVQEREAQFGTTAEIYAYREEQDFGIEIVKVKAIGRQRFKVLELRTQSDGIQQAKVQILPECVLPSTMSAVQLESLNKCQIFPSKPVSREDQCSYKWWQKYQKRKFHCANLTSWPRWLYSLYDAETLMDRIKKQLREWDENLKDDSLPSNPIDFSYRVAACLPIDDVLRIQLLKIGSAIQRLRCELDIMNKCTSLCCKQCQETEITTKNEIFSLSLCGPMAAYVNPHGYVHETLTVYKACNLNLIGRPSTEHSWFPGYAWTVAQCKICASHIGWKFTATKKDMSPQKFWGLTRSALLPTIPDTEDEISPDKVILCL

HEK293 = assay: Cytotoxicity against HEK293 cells expressing HiBiT-tagged CK1alpha at 0.0001 to 100 uM measured over 24 hrs by Cell-Titer Glo assay; format: toxicity, cell-based; settings: human, hek293, 24 h, dose 0.0001-100 µM
[2] = Metabolic stability in pooled human liver microsomes assessed as half-life at 10 uM measured upto 4 hrs in presence of NADPH by UPLC-MS/MS analysis; format: ADME, Microsome
Cereblon/Ikaros [3] = target: T2, Cereblon/Ikaros (Homo sapiens, UniProt Q96SW2+Q13422); assay: PROTAC activity at CRBN/HiBiT-tagged IKZF1 in human Jurkat cells transfected with LgBiT expression vector assessed as induction of IKZF1 degradation measured after 24 hrs by luminescence based GloMax Discover assay; format: cell-based
Cereblon/Ikaros [4] = target: T2, Cereblon/Ikaros; assay: Binding affinity to Halo-tagged CRBN (unknown origin)/HiBiT-tagged IKZF1 in human Jurkat cells transfected with LgBiT expression vector assessed as ternary complex formation by measuring fold increase in NanoBRET signal preincubated with MG132 for 30 mins followed by compound addition and measured after 2 hrs by NanoBRET assay relative to control; format: cell-based
[5] = target: T1, Cereblon/Casein kinase I alpha; assay: PROTAC activity at CRBN/HiBiT-tagged CK1alpha in HEK293 cells transfected with LgBiT expression vector assessed as induction of CK1alpha degradation by measuring degradation rate at 10 uM measured after 24 hrs by luminescence based GloMax Discover assay; format: cell-based
Target sequence in this assay (P48729 2-337 limits assumed): as the sequence (P48729 2-337 limits assumed) above
Target sequence in this assay (Q96SW2 whole entry partner): as the sequence (Q96SW2 whole entry partner) above

Jurkat = assay: Cytotoxicity against human Jurkat cells expressing HiBiT-tagged IKZF1 at 0.0001 to 100 uM measured over 24 hrs by Cell-Titer Glo assay; format: toxicity, cell-based; settings: dose 0.0001-100 µM
[6] = target: Protein cereblon/DNA damage-binding protein 1 (Homo sapiens) (UniProt Q96SW2+Q16531); assay: Binding affinity to 6-His tagged CRBN/DDB1 (unknown origin) incubated for 1 hrs in presence of Cy5-O-Len probe by fluorescence polarization assay; format: protein assay
[7] = target: T1, Cereblon/Casein kinase I alpha; assay: PROTAC activity at CRBN/HiBiT-tagged CK1alpha in HEK293 cells transfected with LgBiT expression vector assessed as induction of CK1alpha degradation measured after 24 hrs by luminescence based GloMax Discover assay; format: cell-based
Target sequence in this assay (P48729 whole entry): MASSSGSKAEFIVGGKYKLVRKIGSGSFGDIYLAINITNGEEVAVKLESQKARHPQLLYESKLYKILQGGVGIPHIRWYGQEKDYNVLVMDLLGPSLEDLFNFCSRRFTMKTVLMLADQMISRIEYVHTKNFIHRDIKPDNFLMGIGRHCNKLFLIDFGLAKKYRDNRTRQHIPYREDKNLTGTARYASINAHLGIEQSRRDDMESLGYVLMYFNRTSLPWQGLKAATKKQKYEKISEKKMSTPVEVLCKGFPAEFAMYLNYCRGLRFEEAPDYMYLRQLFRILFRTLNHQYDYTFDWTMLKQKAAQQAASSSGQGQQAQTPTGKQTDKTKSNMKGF
Target sequence in this assay (Q96SW2 whole entry): as the sequence (Q96SW2 whole entry partner) above

[8] = Metabolic stability in mouse liver microsomes assessed as half-life at 10 uM measured upto 4 hrs in presence of NADPH by UPLC-MS/MS analysis; format: ADME, Microsome; settings: for t1/2: microsomes, 4 h, 10 µM
[9] = Stability in mouse plasma assessed as half-life at 10 uM measured upto 48 hrs by UPLC-MS/MS analysis; format: ADME, cell-free; settings: for t1/2: 48 h, 10 µM
[10] = target: Protein cereblon/Eukaryotic peptide chain release factor GTP-binding subunit ERF3A (Homo sapiens) (UniProt Q96SW2+P15170); assay: PROTAC activity at CRBN (unknown origin)/human HiBiT-tagged GSPT1 transfected in HEK293 cells assessed as induction of GSPT1 degradation measured after 24 hrs by Nano-Glo reagent based luminescence analysis; format: cell-based
[11] = Apparent permeability across apical to basolateral side in MDCK-II cells at 10 micromol/L incubated for 1 hrs by UPLC/MS analysis; format: ADME, cell-based, Canis lupus familiaris; settings: dog, dose 10 µmol/L; for Papp: mdck-ii, 1 h, 10 µM
[12] = Stability in human plasma assessed as half-life at 10 uM measured upto 48 hrs by UPLC-MS/MS analysis; format: ADME, cell-free
[13] = Solubility of compound at pH 7.4 incubated for 18 hrs by UV-spectra analysis; format: physicochemical; settings: buffer; for solubility: pH 7.4, 18 h; for solubility at 18 h: pH 7.4
[14] = Apparent permeability across basolateral to apical side in MDCK-II cells at 10 micromol/L incubated for 1 hrs by UPLC/MS analysis; format: ADME, cell-based, Canis lupus familiaris; settings: dog, dose 10 µmol/L; for Papp: mdck-ii, 1 h, 10 µM
[15] = target: T1, Cereblon/Casein kinase I alpha; assay: Binding affinity to Halo-tagged CRBN (unknown origin)/HiBiT-tagged CK1alpha in HEK293 cells transfected with LgBiT expression vector assessed as ternary complex formation preincubated with MG132 for 30 mins followed by compound addition and measured after 2 hrs by NanoBRET assay; format: cell-based
Target sequence in this assay (P48729 whole entry): as the sequence (P48729 whole entry) above
Target sequence in this assay (Q96SW2 whole entry): as the sequence (Q96SW2 whole entry partner) above

[16] = target: T1, Cereblon/Casein kinase I alpha; assay: PROTAC activity at CRBN/HiBiT-tagged CK1alpha in HEK293 cells transfected with LgBiT expression vector assessed as induction of CK1alpha degradation by measuring maximal efficacy at 10 uM measured after 24 hrs by luminescence based GloMax Discover assay relative to control; format: cell-based
Target sequence in this assay (P48729 2-337 limits assumed): as the sequence (P48729 2-337 limits assumed) above
Target sequence in this assay (Q96SW2 whole entry partner): as the sequence (Q96SW2 whole entry partner) above

Cereblon/Ikaros [17] = target: Cereblon/Ikaros (Homo sapiens, UniProt Q13422+Q96SW2); assay: Binding affinity to Halo-tagged CRBN (unknown origin)/HiBiT-tagged IKZF1 in human Jurkat cells transfected with LgBiT expression vector assessed as ternary complex formation preincubated with MG132 for 30 mins followed by compound addition and measured after 2 hrs by NanoBRET assay; format: cell-based
MOLM-13 [18] = assay: Antiproliferative activity against human MOLM-13 cells incubated for 72 hrs by Cell-Titer Glo assay; format: functional, cell-based; settings: MOLM-13, 72 h
Cereblon/Ikaros [19] = target: T2, Cereblon/Ikaros; assay: PROTAC activity at CRBN/HiBiT-tagged IKZF1 in human Jurkat cells transfected with LgBiT expression vector assessed as induction of IKZF1 degradation by measuring maximal efficacy at 10 uM measured after 24 hrs by luminescence based GloMax Discover assay relative to control; format: cell-based
[20] = Oral bioavailability in female CD-1 mouse at 10 mg/kg administered as 5% v/v NMP, 5% v/v solutol HS-15 and 70% v/v normal saline formulation and measured after 24 hrs; format: ADME, organism-based; settings: in vivo
[21] = Metabolic stability in human hepatocytes assessed as half-life; format: ADME, cell-based, Hepatocyte
[22] = Cmax in female CD-1 mouse at 10 mg/kg, po administered as 5% v/v NMP, 5% v/v solutol HS-15 and 70% v/v normal saline formulation and measured after 24 hrs; format: ADME, organism-based; settings: in vivo
[23] = Cmax in female CD-1 mouse at 3 mg/kg, iv administered as 5% v/v NMP, 5% v/v solutol HS-15 and 70% v/v normal saline formulation and measured after 24 hrs; format: ADME, organism-based; settings: in vivo
[24] = Half-life in female CD-1 mouse at 3 mg/kg, iv administered as 5% v/v NMP, 5% v/v solutol HS-15 and 70% v/v normal saline formulation and measured after 24 hrs; format: ADME, organism-based; settings: in vivo
[25] = AUClast in female CD-1 mouse at 10 mg/kg, po administered as 5% v/v NMP, 5% v/v solutol HS-15 and 70% v/v normal saline formulation and measured after 24 hrs; format: ADME, organism-based; settings: in vivo
[26] = Volume of distribution at steady state in female CD-1 mouse at 3 mg/kg, iv administered as 5% v/v NMP, 5% v/v solutol HS-15 and 70% v/v normal saline formulation and measured after 24 hrs; format: ADME, organism-based; settings: in vivo
[27] = AUClast in female CD-1 mouse at 3 mg/kg, iv administered as 5% v/v NMP, 5% v/v solutol HS-15 and 70% v/v normal saline formulation and measured after 24 hrs; format: ADME, organism-based; settings: in vivo
[28] = Half-life in female CD-1 mouse at 3 mg/kg, iv administered as 5% v/v NMP, 5% v/v solutol HS-15, 20% PEG 400 and 70% v/v normal saline formulation and measured after 24 hrs; format: ADME, organism-based; settings: in vivo
[29] = Cmax in female CD-1 mouse at 10 mg/kg, po administered as 5% v/v NMP, 5% v/v solutol HS-15, 20% PEG 400 and 70% v/v normal saline formulation and measured after 24 hrs; format: ADME, organism-based; settings: in vivo
[30] = AUClast in female CD-1 mouse at 10 mg/kg, po administered as 5% v/v NMP, 5% v/v solutol HS-15, 20% PEG 400 and 70% v/v normal saline formulation and measured after 24 hrs; format: ADME, organism-based; settings: in vivo
[31] = Metabolic stability in CD1 mouse hepatocytes assessed as half-life; format: ADME, cell-based, Hepatocyte
[32] = Volume of distribution at steady state in female CD-1 mouse at 3 mg/kg, iv administered as 5% v/v NMP, 5% v/v solutol HS-15, 20% PEG 400 and 70% v/v normal saline formulation and measured after 24 hrs; format: ADME, organism-based; settings: in vivo
[33] = Cmax in female CD-1 mouse at 3 mg/kg, iv administered as 5% v/v NMP, 5% v/v solutol HS-15, 20% PEG 400 and 70% v/v normal saline formulation and measured after 24 hrs; format: ADME, organism-based; settings: in vivo
MOLM-13 [34] = assay: Downregulation of CK1alpha protein level in human MOLM-13 cells at 1 uM measured after 4 hrs by TMT-proteomic analysis; format: functional, cell-based
[35] = AUClast in female CD-1 mouse at 3 mg/kg, iv administered as 5% v/v NMP, 5% v/v solutol HS-15, 20% PEG 400 and 70% v/v normal saline formulation and measured after 24 hrs; format: ADME, organism-based; settings: in vivo
[36] = Oral bioavailability in female CD-1 mouse at 10 mg/kg administered as 5% v/v NMP, 5% v/v solutol HS-15, 20% PEG 400 and 70% v/v normal saline formulation and measured after 24 hrs; format: ADME, organism-based; settings: in vivo

Chain of Protein cereblon/Eukaryotic peptide chain release factor GTP-binding subunit ERF3A (Homo sapiens) (P15170 whole entry, looked up): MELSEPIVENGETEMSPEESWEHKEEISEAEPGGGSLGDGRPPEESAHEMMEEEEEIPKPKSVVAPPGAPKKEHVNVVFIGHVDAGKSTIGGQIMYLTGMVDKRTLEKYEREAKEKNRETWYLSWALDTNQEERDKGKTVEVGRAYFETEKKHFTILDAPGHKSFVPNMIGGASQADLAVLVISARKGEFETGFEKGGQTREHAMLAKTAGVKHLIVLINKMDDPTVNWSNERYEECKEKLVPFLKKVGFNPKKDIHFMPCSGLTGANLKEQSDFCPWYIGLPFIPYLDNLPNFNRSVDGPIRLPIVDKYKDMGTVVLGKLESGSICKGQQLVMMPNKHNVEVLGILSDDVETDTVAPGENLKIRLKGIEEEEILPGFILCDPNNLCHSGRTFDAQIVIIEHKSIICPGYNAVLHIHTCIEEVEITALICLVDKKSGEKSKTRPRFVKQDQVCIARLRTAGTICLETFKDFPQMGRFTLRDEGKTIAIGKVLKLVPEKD
Chain of Protein cereblon/Eukaryotic peptide chain release factor GTP-binding subunit ERF3A (Homo sapiens) (Q96SW2 whole entry, looked up): as the sequence (Q96SW2 whole entry partner) above
Chain of Protein cereblon/DNA damage-binding protein 1 (Homo sapiens) (Q16531 2-1140 partner limits assumed): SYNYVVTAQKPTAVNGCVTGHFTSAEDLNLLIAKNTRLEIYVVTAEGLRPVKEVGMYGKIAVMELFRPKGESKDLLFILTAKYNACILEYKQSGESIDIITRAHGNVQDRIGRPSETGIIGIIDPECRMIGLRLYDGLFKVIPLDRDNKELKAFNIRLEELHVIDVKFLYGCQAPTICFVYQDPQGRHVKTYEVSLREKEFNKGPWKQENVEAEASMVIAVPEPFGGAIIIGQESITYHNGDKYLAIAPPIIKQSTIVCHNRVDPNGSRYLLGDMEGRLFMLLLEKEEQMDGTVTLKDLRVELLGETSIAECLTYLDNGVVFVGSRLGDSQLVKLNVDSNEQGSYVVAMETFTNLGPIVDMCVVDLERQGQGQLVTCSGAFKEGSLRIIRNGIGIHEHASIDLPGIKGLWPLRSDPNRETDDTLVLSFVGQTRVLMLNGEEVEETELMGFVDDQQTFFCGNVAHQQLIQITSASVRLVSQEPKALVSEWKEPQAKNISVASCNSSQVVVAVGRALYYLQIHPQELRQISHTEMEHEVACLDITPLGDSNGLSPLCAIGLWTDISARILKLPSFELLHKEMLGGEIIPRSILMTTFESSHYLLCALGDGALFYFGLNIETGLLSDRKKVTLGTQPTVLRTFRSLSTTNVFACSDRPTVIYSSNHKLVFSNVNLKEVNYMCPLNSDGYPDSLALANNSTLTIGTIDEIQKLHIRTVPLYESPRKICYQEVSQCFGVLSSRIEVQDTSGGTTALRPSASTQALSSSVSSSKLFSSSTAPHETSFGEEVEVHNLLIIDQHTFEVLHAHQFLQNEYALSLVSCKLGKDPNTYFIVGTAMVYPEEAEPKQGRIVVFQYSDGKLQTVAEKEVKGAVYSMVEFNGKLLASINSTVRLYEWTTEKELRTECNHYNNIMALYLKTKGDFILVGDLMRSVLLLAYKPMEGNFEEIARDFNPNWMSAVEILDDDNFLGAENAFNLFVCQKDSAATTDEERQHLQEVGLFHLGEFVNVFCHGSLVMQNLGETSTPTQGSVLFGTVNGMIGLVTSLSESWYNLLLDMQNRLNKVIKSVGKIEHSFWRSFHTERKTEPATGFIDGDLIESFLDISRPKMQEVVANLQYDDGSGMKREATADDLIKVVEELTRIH
Chain of Protein cereblon/DNA damage-binding protein 1 (Homo sapiens) (Q96SW2 whole entry): as the sequence (Q96SW2 whole entry partner) above
Chain of Cereblon/Ikaros (Homo sapiens, UniProt Q13422+Q96SW2) (Q96SW2 whole entry): as the sequence (Q96SW2 whole entry partner) above
Chain of Cereblon/Ikaros (Homo sapiens, UniProt Q13422+Q96SW2) (Q13422 whole entry): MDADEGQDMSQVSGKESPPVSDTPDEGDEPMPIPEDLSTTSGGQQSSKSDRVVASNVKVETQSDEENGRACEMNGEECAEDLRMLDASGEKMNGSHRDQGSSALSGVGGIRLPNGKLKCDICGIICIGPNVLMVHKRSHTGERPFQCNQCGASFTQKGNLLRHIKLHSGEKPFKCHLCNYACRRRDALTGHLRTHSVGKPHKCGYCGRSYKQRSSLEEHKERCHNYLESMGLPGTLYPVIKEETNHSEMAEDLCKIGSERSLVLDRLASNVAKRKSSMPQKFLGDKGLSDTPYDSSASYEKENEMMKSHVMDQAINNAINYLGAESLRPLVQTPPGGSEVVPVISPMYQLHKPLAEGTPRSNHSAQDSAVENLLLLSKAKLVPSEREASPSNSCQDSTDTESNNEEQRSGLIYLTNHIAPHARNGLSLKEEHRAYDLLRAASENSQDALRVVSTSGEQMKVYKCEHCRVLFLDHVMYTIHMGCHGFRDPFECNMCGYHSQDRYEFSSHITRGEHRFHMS
T2 sequence (Q96SW2 whole entry): as the sequence (Q96SW2 whole entry partner) above
T2 sequence (Q13422 whole entry): as the sequence (Q13422 whole entry) above

Row | SMILES | fold change (FC) [1] | Activity (HEK293) | t1/2 [2] [h] | DC50 (Cereblon/Ikaros [3]) [nM] | fold change (FC) (Cereblon/Ikaros [4]) | Activity [5] [h⁻¹] | Activity (Jurkat) | Activity [6] [µM] | DC50 [7] [nM] | t1/2 [8] [h] | t1/2 [9] [h] | Activity [10] | Papp [11] [×10⁻⁶ cm/s] | t1/2 [12] [h] | solubility [13] [µM] | Papp [14] [×10⁻⁶ cm/s] | pEC50 [15] | Emax [16] [%] | pEC50 (Cereblon/Ikaros [17]) | pIC50 (MOLM-13 [18]) | other results
1 | O=C1CCC(N2Cc3cc(NC(=O)c4ccc(F)cc4)ccc3C2=O)C(=O)N1 (stereo not drawn) | 11 | Non-Toxic | > 10 | > 10000 | 4 | 1.2 | Non-Toxic | 2.1 | 10 | > 10 | 9 | inactive | 0.2 | 10 | 30 (≈ 11.4 µg/mL) | 0.5 | 6.75 | 88 | 6.19 | 7.09 | Emax (Cereblon/Ikaros [19]): 12%
2 | O=C1CCC(N2Cc3cc(CNC(=O)c4ccc(F)cc4)ccc3C2=O)C(=O)N1 (stereo not drawn) | 3 | Non-Toxic |  | 80 | 10 | 0.1 | Non-Toxic | 1.4 | > 10000 |  |  | inactive |  |  |  |  | 6.23 | 23 | 7.46 | < 5.00 | Emax (Cereblon/Ikaros [19]): 57%
3 | O=C1CCC(N2Cc3cc(Nc4noc5cc(F)ccc45)ccc3C2=O)C(=O)N1 (stereo not drawn) |  |  |  |  |  | 3.5 |  |  | 4 | > 10 | 17 |  | 19.7 |  | 26 (≈ 10.3 µg/mL) | 10.4 |  | 95 |  | 7.68 | F [20]: 10%; t1/2 [21]: > 3.6 h; Cmax [22]: 330 ng/mL; Cmax [23]: 4240 ng/mL; t1/2 [24]: 1.98 h; AUClast [25]: 306 ng·h/mL; Vdss [26]: 1.34 L/kg; AUClast [27]: 911 ng·h/mL
4 | O=C1CCC(N2Cc3cc(Nc4noc5ccccc45)ccc3C2=O)C(=O)N1 (stereo not drawn) |  |  | > 10 |  |  | 3.5 |  |  | 1 | > 10 | 25 |  | 24.5 | 8.5 |  | 26.2 |  | 95 |  | 7.89 | t1/2 [28]: 0.35 h; Cmax [29]: 207 ng/mL; AUClast [30]: 264 ng·h/mL; t1/2 ([31]; mouse): > 3.6 h; Vdss [32]: 1.11 L/kg; t1/2 [21]: > 3.6 h; Cmax [33]: 2700 ng/mL; Activity (MOLM-13 [34]): Active; AUClast [35]: 832 ng·h/mL; solubility at 18 h [13]: 36 µM (≈ 13.5 µg/mL); F [36]: 9.5%
5 | Cc1ccc2c(Nc3ccc4c(c3)CN(C3CCC(=O)NC3=O)C4=O)noc2c1 (stereo not drawn) |  |  |  |  |  | 3.5 |  |  | 1 |  |  |  |  |  |  |  |  | 94 |  | 7.49 | half-life ([31]; CD1, mouse): > 3.6 h; half-life at 10 µM ([8]; liver microsomes): > 10 h; half-life at 10 µM [9]: 31 h; Papp A→B at 1 h, 10 µM ([11]; MDCK): 3 ×10⁻⁶ cm/s; solubility at 18 h [13]: 7 µM (≈ 2.73 µg/mL); Papp B→A at 1 h, 10 µM ([14]; MDCK): 2.2 ×10⁻⁶ cm/s
